Test results as given in patent publication US10912752B2, “Methods and compositions for reducing ocular discomfort” (Brien Holden Vision Institute Limited, priority 2012, dated 2021).
Entries after “also recorded” stand apart in the source; their conditions may differ.

What was measured:
IL-17 = experiment: qRT-PCR of mouse conjunctiva, ICES dry eye model; format: in vivo, C57BL/6 mice; settings: normalized to GAPDH; for mRNA expression of IL-17 vs PBS treatment group: Schedule 1, Day 21, conjunctiva
Excerpt: (§1) For Schedule 1, six (6×) mice per each group at the end of Day 21 and five (5×) mice from each group at the end of Day 35 post-housing in ICES and undergoing the treatment were sacrificed with an overdose of a mixture of ketamine and xylazine for qRT-PCR evaluation of […] inflammatory responses. On the other hand, for Schedule 2, three (3×) mice were sacrificed at the end of Day 21, and all the other mice were sacrificed at the end of Day 35 post-housing in ICES and undergoing the treatment. Additionally, seven healthy animals which were not housed in ICES and received no treatment were euthanized as healthy controls for comparison.
(§2) For qRT-PCR detection of IL-1β, IL-6, IL-17, TNF-α, and GAPDH, total RNA from conjunctivas (2 eyes/group/schedule) were extracted and pooled from each of the five experimental groups using the RNA isolation kit according to the manufacturer's instructions (PicoPure RNA isolation kit, 40 isolations, Arcturus). cDNA was synthesized from 1-μg of total RNA using random primer and M-MuLV reverse transcriptase. The primer sequences for qRT-PCR detection of these mediators have been designed in preparation for qRT-PCR work (Table 1).
(§3) Expression of IL-1β, IL-6, IL-17, or TNF-α detected at mRNA level from Real-time PCR were normalized to that of the housekeeping gene GAPDH. Total RNA were collected from the pooled conjunctiva from 2 eyes of each group (total 6× eyes per each treatment group were used for qRT-PCR).

IL-6 = experiment: qRT-PCR of mouse conjunctiva, ICES dry eye model; format: in vivo, C57BL/6 mice; settings: normalized to GAPDH; for mRNA expression of IL-6 vs PBS treatment group: Schedule 1, Day 21, conjunctiva
Excerpt: as §1, §2, §3

TNF-α = experiment: qRT-PCR of mouse conjunctiva, ICES dry eye model; format: in vivo, C57BL/6 mice; settings: normalized to GAPDH; for mRNA expression of TNF-α vs PBS treatment group: Schedule 1, Day 21, conjunctiva
Excerpt: as §1, §2, §3

IL-1β = experiment: qRT-PCR of mouse conjunctiva, ICES dry eye model; format: in vivo, C57BL/6 mice; settings: normalized to GAPDH; for mRNA expression of IL-1β vs PBS treatment group: Schedule 1, Day 21, conjunctiva
Excerpt: as §1, §2, §3

HCLE cells [1] = experiment: MTT cell viability, titration of osmolyte concentration in isotonic medium; format: cell-based, human
Method: An immortalized human corneal limbal epithelial (HCLE) cell line (a kind gift from Ilene Gipson, Schepens Eye Research Institute, Boston, Mass.) was used in the study. HCLE cells were cultured as previously described (Garrett et al. Invest Ophthalmol Vis Sci 2008; 49:4844-4849). Briefly, the cells were maintained on plastic at 2×10^4/cm^2 in a keratinocyte serum-free medium (K-SFM; Invitrogen-Gibco, Grand Island, N.Y.), supplemented with 25 μg/mL bovine pituitary extract, 0.2 ng/mL epidermal growth factor (EGF; Invitrogen, Mount Waverley, VIC, Australia), and 0.4 mM CaCl2 and were grown at 37° C. in a 5% carbon dioxide atmosphere. To enhance nutrient composition, the cultures were switched at approximately 50% confluence to a 1:1 mixture of K-SFM and low calcium DMEM/F12 (Invitrogen), to achieve confluence. All the experiments involving the culture of HCLE cells were performed at 37° C. in a 5% carbon dioxide atmosphere unless otherwise indicated.
To determine the optimal concentration of betaine for use in the osmoprotective studies, betaine (Sigma-Aldrich, St. Louis, Mo.; 1.0-200 mM) was prepared in culture medium. […] Following treatment with betaine, cell viability was assessed using the 3-[4,5-dimethylthiazol-2-yl]-2,5-diphenyltetr azoliumbromide (MTT) cell survival assays (Promega, Madison, Wis.).

HCLE cells [2] = experiment: Flow cytometry Annexin V/PI apoptosis/necrosis under hyperosmotic stress; format: cell-based, human; settings: 16 h; for percentage of healthy cells (Annexin V and PI negative): 500 mOsm + 10 mM vs 500 mOsm; for total percentage of apoptotic and necrotic (damaged) cells: 500 mOsm + 10 mM, flow cytometry
Method: Cell volume and Live/Dead staining via flow cytometry were performed using the Attune® Acoustic focusing Cytometer (Life Technologies™ Applied Biosystems). Annexin V and PI kit (Invitrogen™) was used to analyse the non-apoptotic, and the early and late apoptotic cells. Staining was performed as per manufacturer's instructions. Analysis of Annexin staining was conducted using the blue/violet laser with excitation/emission spectra of 480/500 nm (20 mW) and the PI staining analysis was conducted using blue/red laser with an excitation/emission spectra of 490/635 nm.
500 mOsm and exposure time (16 h) to be the most informative under which to observe hyperosmolality induced cellular responses of HCLE (results not shown). Thus, in the present study, a hyperosmotic medium of 500 mOsm and exposure time of 16 h were used throughout. Hyperosmolar media were prepared by the addition of NaCl to the medium. Medium osmolarity was measured using a Vapro 5520 vapour pressure osmometer (Wescor, Logan, Utah). Subconfluent cells were exposed to hyperosmolar media in the presence or absence of betaine (5 or 10 mM). Mitochondrial and proliferation activities for cell viability; TNF-α production; caspase activity and Annexin V/PI staining for apoptosis; and cellular shrinkage were monitored as detailed below.
It was observed that an osmolarity of 450 mOsM and 500 mOsM and exposure time of 16 hours was the most optimal for studying hyperosmolarity induced cellular responses of HCLE (results not shown). Therefore, a hyperosmolar medium of 450 mOsM and 500 mOsM and an exposure time of 16 hours were used throughout the study. The hyperosmolarity of the medium was achieved by addition of an appropriate amount of NaCl to it, and further measuring using Vapro 5520 vapor pressure osmometer (Wescor, Logan, Utah). Cells, having reached 70%-80% confluence were exposed to hyperosmolar media in the presence or absence of 10 mM L-Carnitine. Cellular shrinkage in relation to hyperosmotic stress, Annexin V/PI staining for apoptosis, Caspase activities and TNF-α production were analysed.
Cultured human corneal limbal epithelial (HCLE) cells were exposed to culture medium with or without carnitine (10 mM) at 300 mOsm (isotonic), 450 mOsm (moderate), and 500 mOsm (hyperosmotic) for 16 h. Induction of apoptosis was detected by quantification of the proteolytic activity of caspase-8, caspase-9, or caspase-3/7 using caspase activity assays, and production of tumor necrosis factor (TNF)-α, a known apoptosis inducer, using ELISA. Annexin V and Propidium iodine (PI) staining was performed to detect the percentage of apoptotic cells using confocal microscopy and flow cytometry.

[3] = Schedule 2, Day 35, conjunctiva

Structure (SMILES) | mRNA expression of IL-17 vs PBS treatment group (IL-17) | mRNA expression of IL-6 vs PBS treatment group (IL-6) | mRNA expression of TNF-α vs PBS treatment group (TNF-α) | mRNA expression of TNF-α vs PBS control (C) (TNF-α; [3]) | mRNA expression of IL-1β vs PBS treatment group (IL-1β) | betaine concentration not toxic to the cells (HCLE cells [1]; titration 0-200 mM, 300 mOsm medium, 16 h, MTT) | percentage of healthy cells (Annexin V and PI negative) (HCLE cells [2]) | total percentage of apoptotic and necrotic (damaged) cells (HCLE cells [2]) | mRNA expression of IL-17 vs PBS treatment group (IL-17; listed as B) | mRNA expression of IL-17 vs PBS control (C) (IL-17; [3]) | mRNA expression of IL-6 vs PBS treatment group (IL-6; listed as B) | mRNA expression of IL-6 vs PBS control (C) (IL-6; [3]) | mRNA expression of TNF-α vs PBS treatment group (TNF-α; listed as B) | mRNA expression of IL-1β vs PBS treatment group (IL-1β; listed as B) | mRNA expression of IL-1β vs PBS control (C) (IL-1β; [3]) | concentration optimal to carry out osmoprotective studies (cell viability analysis) (HCLE cells [1]; toxicity of various concentrations) | increase in the percentage of un-damaged (non-apoptotic/non-necrotic) cells (HCLE cells [2]; 10 mM, 500 mOsm, vs hyperosmotically stressed HCLE)
C[N+](C)(C)CC(=O)[O-] [betaine, trimethylglycine] | statistically significant reduction | statistically significant reduction | statistically significant reduction | statistically significant reduction | statistically significant reduction | up to 40 mM | considerable increase | 15.70% |  |  |  |  |  |  |  |  | 
C[N+](C)(C)CC(O)CC(=O)[O-] (stereo not shown) [carnitine, 3-hydroxy-4-(trimethylazaniumyl)butanoate] |  |  |  |  |  |  | increased | ~19.0% | statistically significant reduction; also recorded: lowest expression level | statistically significant reduction | statistically significant reduction; also recorded: lowest expression level | statistically significant reduction | statistically significant reduction; also recorded: lowest expression level | statistically significant reduction; also recorded: lowest expression level | statistically significant reduction | 10000 µM | 63%
